Source: ChEMBL document CHEMBL1141727, “Isolation and cytotoxic evaluation of marine sponge-derived norterpene peroxides” (J Nat Prod, 1998)

Columns and labels:
Assay type in all cases: functional
OVCAR-3 = assay: Growth inhibition of human OVCAR-3 cells
Malme-3M = assay: Growth inhibition of human MALME-3M cells
U-251 = assay: Growth inhibition of human U251 cells
KM12 = assay: Growth inhibition of human KM12 cells
UACC-62 = assay: Growth inhibition of human UACC62 cells
[1] = Growth inhibition of human H125 cells assessed as zone units at 50 ug/disk by disk diffusion agar colony formation assay
RXF 393 = assay: Growth inhibition of human […] cells
OVCAR-4 = assay: Growth inhibition of human OVCAR4 cells
M14 = assay: Growth inhibition of human M14 cells
SNB-19 = assay: Growth inhibition of human SNB19 cells
HOP-92 = assay: Growth inhibition of human HOP92 cells
HT-29 = assay: Growth inhibition of human HT-29 cells
HOP-62 = assay: Growth inhibition of human HOP62 cells
HCT-15 = assay: Growth inhibition of human HCT15 cells
SNB-75 = assay: Growth inhibition of human SNB75 cells
SK-MEL-5 = assay: Growth inhibition of human SK-MEL-5 cells
MCF7 = assay: Growth inhibition of human MCF7 cells
PO3 = assay: Growth inhibition of mouse PO3 cells assessed as zone units at 50 ug/disk by disk diffusion agar colony formation assay
UO-31 = assay: Growth inhibition of human UO31 cells
SW-620 = assay: Growth inhibition of human SW620 cells
NCI-H322M = assay: Growth inhibition of human NCI-H322M cells
LOX IMVI = assay: Growth inhibition of human LOXIMVI cells
A498 = assay: Growth inhibition of human A498 cells
COLO 205 = assay: Growth inhibition of human COLO205 cells
OVCAR-8 = assay: Growth inhibition of human OVCAR8 cells
HCT-116 = assay: Growth inhibition of human HCT116 cells
K562 = assay: Growth inhibition of human K562 cells
A549 = assay: Growth inhibition of human A549 cells
DU-145 = assay: Growth inhibition of human DU145 cells
SK-MEL-2 = assay: Growth inhibition of human SK-MEL-2 cells
[2] = Growth inhibition of human MCF7/ADR resistant cells; details: NCI/ADR-RES
786-0 = assay: Growth inhibition of human 786-0 cells
NCI-H226 = assay: Growth inhibition of human NCI-H226 cells
ACHN = assay: Growth inhibition of human ACHN cells
OVCAR-5 = assay: Growth inhibition of human OVCAR5 cells
UACC-257 = assay: Growth inhibition of human UACC257 cells
HCC 2998 = assay: Growth inhibition of human HCC2998 cells
CCRF-CEM = assay: Growth inhibition of human CCRF-CEM cells
TK-10 = assay: Growth inhibition of human TK10 cells
MDA-MB-231 = assay: Growth inhibition of human MDA-MB-231 cells
EKVX = assay: Growth inhibition of human EKVX cells
MOLT-4 = assay: Growth inhibition of human MOLT4 cells
SK-MEL-28 = assay: Growth inhibition of human SK-MEL-28 cells
[3] = Growth inhibition of human […] cells
SK-OV-3 = assay: Growth inhibition of human SKOV3 cells
HL-60(TB) = assay: Growth inhibition of human HL-60(TB) cells
SF-295 = assay: Growth inhibition of human SF295 cells
SR = assay: Growth inhibition of human SR cells
MDA-MB-435 = assay: Growth inhibition of human MDA-MB-435 cells
IGROV-1 = assay: Growth inhibition of human IGROV1 cells
NCI-H23 = assay: Growth inhibition of human NCI-H23 cells
P388 = assay: Growth inhibition of mouse P388 cells assessed as zone units at 50 ug/disk by disk diffusion agar colony formation assay
NCI-H522 = assay: Growth inhibition of human NCI-H522 cells
L1210 = assay: Growth inhibition of mouse L1210 cells assessed as zone units at 50 ug/disk by disk diffusion agar colony formation assay
CAKI-1 = assay: Growth inhibition of human Caki1 cells
SF-539 = assay: Growth inhibition of human SF539 cells

Compound `C=C1CCCC(C)(C)C1(O)CC/C(C)=C/CC[C@]1(C)CC[C@@H]([C@@H](C)C(=O)OC)OO1` (stereo partly specified) [MUQUBILIN B] has a GI50 (OVCAR-3) greater than 17.5 µM, a GI50 (Malme-3M) greater than 17.5 µM and a GI50 (U-251) greater than 17.5 µM. It also gave a GI50 (KM12) greater than 17.5 µM, a GI50 (UACC-62) greater than 17.5 µM and an Activity [1] of 0 Zone units. The GI50 (RXF 393) was greater than 17.5 µM, the GI50 (OVCAR-4) was greater than 17.5 µM and the GI50 (M14) was greater than 17.5 µM. It also gave a GI50 (SNB-19) greater than 17.5 µM, a GI50 (HOP-92) greater than 17.5 µM and a GI50 (HT-29) greater than 17.5 µM. The GI50 (HOP-62) was greater than 17.5 µM, the GI50 (HCT-15) was greater than 17.5 µM and the GI50 (SNB-75) was 15 µM. For the same compound, the GI50 (SK-MEL-5) was greater than 17.5 µM, the GI50 (MCF7) was greater than 17.5 µM and the Activity (PO3) was 90 Zone units. It also gave a GI50 (UO-31) greater than 17.5 µM, a GI50 (SW-620) greater than 17.5 µM and a GI50 (NCI-H322M) greater than 17.5 µM. It also gave a GI50 (LOX IMVI) of 5.22 µM, a GI50 (A498) greater than 17.5 µM and a GI50 (COLO 205) greater than 17.5 µM. The GI50 (OVCAR-8) was greater than 17.5 µM, the GI50 (HCT-116) was greater than 17.5 µM and the GI50 (K562) was greater than 17.5 µM. For the same compound, the GI50 (A549) was greater than 17.5 µM, the GI50 (DU-145) was greater than 17.5 µM and the GI50 (SK-MEL-2) was greater than 17.5 µM. The GI50 [2] was greater than 17.5 µM, the GI50 (786-0) was greater than 17.5 µM and the GI50 (NCI-H226) was greater than 17.5 µM. The GI50 (ACHN) was greater than 17.5 µM, the GI50 (OVCAR-5) was greater than 17.5 µM and the GI50 (UACC-257) was greater than 17.5 µM. It also gave a GI50 (HCC 2998) greater than 17.5 µM, a GI50 (CCRF-CEM) greater than 17.5 µM and a GI50 (TK-10) greater than 17.5 µM. It also gave a GI50 (MDA-MB-231) greater than 17.5 µM, a GI50 (EKVX) greater than 17.5 µM and a GI50 (MOLT-4) greater than 17.5 µM. The GI50 (SK-MEL-28) was greater than 17.5 µM, the GI50 [3] was greater than 17.5 µM and the GI50 (SK-OV-3) was greater than 17.5 µM. The GI50 (HL-60(TB)) was greater than 17.5 µM, the GI50 (SF-295) was greater than 17.5 µM and the GI50 (SR) was greater than 17.5 µM. It also gave a GI50 (MDA-MB-435) greater than 17.5 µM, a GI50 (IGROV-1) of 2.42 µM and a GI50 (NCI-H23) greater than 17.5 µM. The Activity (P388) was 80 Zone units, the GI50 (NCI-H522) was 12.8 µM and the Activity (L1210) was 80 Zone units. The GI50 (CAKI-1) was greater than 17.5 µM and the GI50 (SF-539) was greater than 17.5 µM.
